Article PMC6691788, “Design and synthesis of phthalazine-based compounds as potent anticancer agents with potential antiangiogenic activity via VEGFR-2 inhibition” (Journal of Enzyme Inhibition and Medicinal Chemistry, 2019)
Entries after “also recorded” stand apart in the source; their conditions may differ. Where two headings read alike, the source gives them in different places.

Assays:
[1] = tested on: IGROV1; experiment: NCI 60 cell panel SRB screen; format: cell-based; details: Homo sapiens, IGROV-1
[2] = tested on: MCF-7 cells; experiment: Cell-cycle analysis by flow cytometry; format: cell-based; details: MCF-7, at GI50 concentration, 24 h and 48 h
Source text: The effect of compound (7b and 13c) on the normal cell-cycle progression was characterised using flow cytometric analysis of the DNA ploidy in MCF-7 cells using BD […] ^TM software. […] The observed increase in sub-G1 cell population may imply DNA fragmentation and apoptosis as a potential mechanism for 7b/13c-induced cancer cell death.
The cells then were collected by trypsinization, washed with phosphate buffered saline (PBS), and fixed in ice-cold absolute alcohol. Thereafter, cells were stained, using Cycletest^TM Plus DNA Reagent Kit (BD Biosciences, San Jose, CA), according to the manufacturer’s instructions. Cell cycle distribution was determined using a FACS Calibur flow cytometer (BD Biosciences, San Jose, CA).

[3] = tested on: UO-31; experiment: NCI 60 cell panel SRB screen; format: cell-based; details: Homo sapiens
[4] = tested on: UACC-62; experiment: NCI 60 cell panel SRB screen; format: cell-based
[5] = tested on: 786-0; experiment: NCI 60 cell panel SRB screen; format: cell-based; details: Homo sapiens; 786-0, 5 log dose
[6] = tested on: M14; experiment: NCI 60 cell panel SRB screen; format: cell-based; details: Homo sapiens
[7] = tested on: cleaved caspase-3 in MCF-7 cells; experiment: Cleaved caspase-3 immunostaining; format: cell-based; details: MCF-7, 0.32 µM, 24 h and 48 h
Description: Caspase-3 is a member of the cysteine-aspartic acid protease (caspase) family. Sequential activation of caspases is considered as one of the important keys in cellular apoptosis process. […] Cleaved caspase-3 further activates a cascade of caspases that induce cell death.
(§1) MCF7 cells were cultured on sterile cover slips (Harvard Apparatus, 22 mm2) in sterile six well plates at a density of 2×10^5 cells/well. Twenty-four hours after seeding, cells were exposed to GI50 concentration of compound 7b in fresh serum-free medium. At the end of the exposure, cells attached to cover slips were imaged with a light inverted microscope or washed with PBS and fixed with 3.7% paraformaldhyde for 10 min, permeabilized with 0.1% Triton X-100 in TBST containing 0.01% Tween 20 for 10 min, and blocked for 1 h with 5% goat serum in TBST. The fixed and permeabilized cells were incubated with cleaved caspase-3 rabbit mAb (Cell signaling technology, MA), at a dilution of 1:500, in blocking solution overnight at 4 °C, followed by secondary Cy3-goat anti-Rabbit antibody (Jackson Immuno Research, West Grove, PA) 1:1000 dilution, in the blocking solution for 1 hour, at room temperature. 4',6'-diamidino-2-phenylindole, dihydrochloride (DAPI) (Sigma– Aldrich, St. Louis, MO) was used as counter stain to stain the DNA. […]

[8] = tested on: MCF-7 cells; experiment: Cellular and nuclear morphology (light microscopy, Dapi staining); format: cell-based; details: MCF-7, 0.32 µM, 24 and 48 h
Description: To further examine the apoptosis inducing effect of 7b, the cellular as well as nuclear morphological changes for MCF-7 cells treated with 7b (0.32 µM) were studied following Dapi staining. The effect of 7b on cell morphology was initially analysed with light microscopy.
as §1

[9] = tested on: full NCI 60 cell panel; experiment: NCI 60 cell panel SRB screen, whole panel; format: cell-based, human; details: NCI 5-log dose, full 60 cell panel, read-out: GI50 values, range over the tested cell lines
[10] = tested on: MCF-7 cells; experiment: Annexin V-FITC/PI apoptosis detection; format: cell-based; details: MCF-7, at GI50, 24 h and 48 h
Source text: To further investigate the ability of compounds (7b, 13c and 16a) to induce apoptosis, an Annexin V (conjugated to FITC) apoptosis detection kit was employed. This assay detects phosphatidylserine (PS) expressed on the surface of apoptotic cells and fluoresces green after interacting with the labelled Annexin V. During early apoptosis, membrane asymmetry is lost, and PS translocates from the cytoplasmic side of the membrane to the external leaflet. Propidium iodide (PI), the counter stain used in this assay, has the ability to cross only compromised membranes to intercalate into the DNA. Therefore, PI is used to detect the late stages of apoptosis by the presence of red fluorescence.
Apoptosis was determined by staining cells with Annexin V–fluorescein isothiocyanate (FITC) and counterstaining with propidium iodide (PI) using the Annexin V–FITC/PI apoptosis detection kit (BD PharMingen, San Diego, CA, USA) according to the manufacturer's instructions. […] The cells then were collected by trypsinization and 0.5 × 10^6 cells were washed twice with phosphate-buffered saline (PBS) and stained with 5 μl Annexin V–FITC and 5 μl PI in 1× binding buffer (BD PharMingen) for 15 minutes at room temperature in the dark. Analyses were performed using FACS Calibur flow cytometer (BD Biosciences, San Jose, CA).

[11] = tested on: EKVX; experiment: NCI 60 cell panel SRB screen; format: cell-based, human; details: Homo sapiens, 5 log dose
[12] = tested on: MCF7; experiment: NCI 60 cell panel SRB screen; format: cell-based; details: Homo sapiens
[13] = tested on: SF-539; experiment: NCI 60 cell panel SRB screen; format: cell-based, human; details: Homo sapiens, SF-539, 5 log dose
[14] = tested on: SK-MEL-2; experiment: NCI 60 cell panel SRB screen; format: cell-based; details: Homo sapiens
[15] = tested on: BT-549; experiment: NCI 60 cell panel SRB screen; format: cell-based; details: Homo sapiens
[16] = tested on: SNB-75; experiment: NCI 60 cell panel SRB screen; format: cell-based; details: Homo sapiens

SMILES: O=C(Nc1ccc(Cl)cc1)Nc1ccc(Oc2nncc3ccccc23)cc1 [Compound 7b, 1–(4-Chlorophenyl)-3–(4-(phthalazin-1-yloxy)phenyl)urea]
- GI50 ([1]; IGROV1, 5 log dose): 1160 nM
- IC (TGI) ([1]; IGROV1, 5 log dose): 5000 nM
- CC50 ([1]; IGROV1, 5 log dose, 48 h, read-out: LC50 (the source's name)): > 100000 nM
- activity at 10 µM ([1]; IGROV1, single dose 10 μM, read-out: percent cell growth promotion): 8.16%
- effect on cell-cycle progression [2]: induce cell cycle arrest at S phase boundary; also recorded: remarkable disruption in cell cycle profile and cell-cycle arrest at S-phase boundary with concurrent time-dependent increase in pre-G cell population
- GI50 ([3]; UO-31, 5 log dose): 1290 nM
- IC (TGI) ([3]; UO-31, 5 log dose): 2670 nM
- activity at 10 µM ([3]; UO-31, single dose 10 μM, read-out: percent cell growth promotion): -51.6%
- GI50 ([4]; Homo sapiens, UACC-62): 1080 nM
- activity at 10 µM ([4]; Homo sapiens, UACC-62, read-out: percent cell growth promotion): -14.3%
- CC50 ([4]; Homo sapiens, UACC-62, 5 log dose, 48 h, read-out: LC50 (the source's name)): 14000 nM
- TGI ([4]; UACC-62, 5 log dose): 3460 nM
- GI50 [5]: 870 nM
- IC (TGI) [5]: 2350 nM
- GI50 ([6]; M14): 1120 nM
- IC (TGI) ([6]; M14, read-out: TGI): 3160 nM
- activity at 10 µM ([6]; M14, read-out: percent cell growth promotion): 7.3%
- CC50 ([6]; M14, 5 log dose, 48 h, read-out: LC50 (the source's name)): 8930 nM
- cleaved caspase-3 protein expression [7]: concurrent increase in cleaved caspase-3 expression level; also recorded: time-dependent increase in cleaved caspase-3 protein expression; also recorded: increase the expression of cleaved caspase-3
- cellular and nuclear morphology [8]: deteriorated morphological changes including cell rounding, detachment and cellular fragmentation; also recorded: typical apoptotic characteristics; including condensation of chromatin (brightly stained cells), blubbing with the appearance of nuclear fragmentation
- GI50 ([9]; Homo sapiens, 60 cell): 150 to 8410 nM
- GI50 [9]: 150 to 2810 nM
- induction of apoptosis (Annexin-V positive cells), in words [10]: increased the percentage of Annexin-V positive cells indicating an early (lower right quadrant) or late (upper right quadrant) apoptosis in a time-dependent manner
- GI50 [11]: 1610 nM
- IC (TGI) [11]: 4500 nM
- LC50 ([11]; 48 h): > 100000 nM
- IC (TGI) ([12]; MCF7, read-out: TGI): 1890 nM
- activity at 10 µM ([12]; MCF7, read-out: percent cell growth promotion): 14.3%
- GI50 ([12]; MCF7, 5 log dose, read-out: GI50): 320 nM
- GI50 [13]: 280 nM
- IC (TGI) [13]: 1130 nM
- CC50 ([13]; 48 h, read-out: LC50 (the source's name)): 3810 nM
- GI50 [14]: 1570 nM
- IC (TGI) ([14]; read-out: TGI): 3650 nM
- CC50 ([14]; SK-MEL-2, 5 log dose, 48 h, read-out: LC50 (the source's name)): 8500 nM
- GI50 ([15]; BT-549): 2080 nM
- IC (TGI) ([15]; BT-549, read-out: TGI): 7430 nM
- activity at 10 µM ([15]; BT-549, read-out: percent cell growth promotion): -10.3%
- CC50 ([15]; BT-549, 5 log dose, 48 h, read-out: LC50 (the source's name)): 58100 nM
- GI50 ([16]; SNB-75, 5 log dose): 450 nM
- IC (TGI) ([16]; SNB-75, 5 log dose): 1950 nM
- LC50 (concentration killing 50% of cells) ([16]; SNB-75, 5 log dose, 48 h): 5200 nM
- activity at 10 µM ([16]; SNB-75, single dose 10 μM, read-out: percent cell growth promotion): -3.13%
